Format in all cases: binding
Assay [1] has as its target T1, human MDM2 protein (amino acids 2-188) (Homo sapiens, UniProt Q00987).
T1 construct: human MDM2 protein (amino acids 2-188); made in house
The assay is described as follows: p53-MDM2 TR-FRET assay (p53-MDM2 Assay 1). The conditions noted are these: 1.25 nM MDM2-biotinylated, 10 nM Cy5-p53 peptide; read-out: IC50 (μM) of p53-Hdm2 inhibition (TR-FRET) Assay 1. Put shortly: (§1)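 Peptide displacement read as 665/620 nm TR-FRET ratio (excitation 340 nm) after 15 min room temperature with 10 nM Cy5-p53 aa18-26, following 15 min preincubation of Eu-streptavidin (0.625 nM) with biotinylated MDM4 aa 2-185 (2.5 nM) or MDM2 aa 2-188 (1.25 nM); IC50 curve-fitted. MDM2 Assay 2: MDM2 and Eu-streptavidin each 0.1 nM.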

Assay [2] deals with T1, human MDM2 protein (amino acids 2-188). Put plainly: p53-MDM2 TR-FRET assay, modified (p53-MDM2 Assay 2). The conditions noted are these: 0.1 nM MDM2, 0.1 nM Europium labeled streptavidin; read-out: IC50 (nM) of p53-Hdm2 inhibition (TR-FRET) Assay 2. Put shortly:
as §1
In general terms: TR-FRET usually uses a lanthanide donor and a delayed reading to cut background.

Assay [3] addresses T2, human MDM4 protein (amino acids 2-185) (Homo sapiens, UniProt O15151).
T2 construct: human MDM4 protein (amino acids 2-185); made in house
T2 sequence (O15151 2-185): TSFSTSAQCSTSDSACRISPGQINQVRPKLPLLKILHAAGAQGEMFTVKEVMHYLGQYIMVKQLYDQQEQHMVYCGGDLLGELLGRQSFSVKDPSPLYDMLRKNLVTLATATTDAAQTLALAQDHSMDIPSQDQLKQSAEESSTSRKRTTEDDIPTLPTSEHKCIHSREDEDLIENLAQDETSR
Put plainly: p53-MDM4 TR-FRET assay (p53-MDM4 Assay 1). The conditions noted are these: 2.5 nM MDM4-biotinylated, 10 nM Cy5-p53 peptide; read-out: IC50 (μM) of p53-Hdm4 inhibition (TR-FRET) Assay 1. Put shortly: as §1

SMILES strings stand for the structures.

Among the data in patent US8859535B2, “Hydroxy substituted isoquinolinone derivatives” (Novartis AG, priority 2011, dated 2014) are IC50 values, retold here.

T1 sequence (Q00987 2-188): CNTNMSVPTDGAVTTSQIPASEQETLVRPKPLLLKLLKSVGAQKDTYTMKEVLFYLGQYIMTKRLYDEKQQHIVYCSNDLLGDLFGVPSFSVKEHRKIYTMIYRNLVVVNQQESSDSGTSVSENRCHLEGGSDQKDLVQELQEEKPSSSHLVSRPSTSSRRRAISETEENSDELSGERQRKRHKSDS

By IC50 is commonly meant the point on the concentration scale where inhibition reaches its midpoint. Consider `COc1cc2c(cc1OC(C)C)[C@H](c1ccc(Cl)cc1)N(c1ccc(C(C)(O)C3CCN(CCO)CC3)cc1)C(=O)C2` (stereo partly drawn) [Example 93, (S)-1-(4-Chloro-phenyl)-2-(4-{1-hydroxy-1-[1-(2-hydroxy-ethyl)-piperidin-4-yl]-ethyl}-phenyl)-7-isopropoxy-6-methoxy-1,4-dihydro-2H-isoquinolin-3-one], for which the IC50 in assay [1] came out at 0.0027 µM; in assay [2], 2.3 nM; in assay [3] it was 3.35 µM.

Consider `COc1cc2c(cc1OC(C)C)[C@H](c1ccc(Cl)cc1)N(c1ccc(C(C)(O)C3CCN(C4COC4)CC3)cc1)C(=O)C2` (stereo partly drawn) [Example 96, (S)-1-(4-Chloro-phenyl)-2-{4-[1-hydroxy-1-(1-oxetan-3-yl-piperidin-4-yl)-ethyl]-phenyl}-7-isopropoxy-6-methoxy-1,4-dihydro-2H-isoquinolin-3-one], for which the concentration for half-maximal inhibition (IC50) in assay [1] was 0.0021 µM; in assay [2], 1.35 nM; in assay [3], 2.18 µM.

Turning to `COc1cc2c(cc1OC(C)C)[C@H](c1ccc(Cl)cc1)N(c1ccc(C(C)(O)C3CCN(C4CCC4)CC3)cc1)C(=O)C2` (stereo partly drawn) [Example 97, (S)-1-(4-Chloro-phenyl)-2-{4-[1-(1-cyclobutyl-piperidin-4-yl)-1-hydroxy-ethyl]-phenyl}-7-isopropoxy-6-methoxy-1,4-dihydro-2H-isoquinolin-3-one], the IC50 in assay [1] was determined as 0.0025 µM; in assay [2] it was 2.4 nM; in assay [3], 2.43 µM.

On to `COc1cc2c(cc1OC(C)C)[C@H](c1ccc(Cl)cc1)N(c1ccc(C(C)(O)C3CC4CCC(C3)N4C)cc1)C(=O)C2` (stereo partly drawn) [Example 105, (S)-1-(4-Chloro-phenyl)-2-{4-[1-hydroxy-1-(8-methyl-8-aza-bicyclo[3.2.1]oct-3-yl)-ethyl]-phenyl}-7-isopropoxy-6-methoxy-1,4-dihydro-2H-isoquinolin-3-one], for which the 50% inhibitory concentration (IC50) in assay [1] stood at 0.0043 µM; in assay [2] it was 2.25 nM; in assay [3], 4.12 µM.

Take `COc1cc2c(cc1OC(C)C)[C@H](c1ccc(Cl)cc1)N(c1ccc(C(C)(O)C3CC4CCC(C3)N4CC(F)(F)F)cc1)C(=O)C2` (stereo partly drawn) [Example 106, (S)-1-(4-Chloro-phenyl)-2-(4-{1-hydroxy-1-[8-(2,2,2-trifluoro-ethyl)-8-aza-bicyclo[3.2.1]oct-3-yl]-ethyl}-phenyl)-7-isopropoxy-6-methoxy-1,4-dihydro-2H-isoquinolin-3-one]: the IC50 worked out at 0.0049 µM in assay [1], 1.97 nM in assay [2] and 8.84 µM in assay [3].

Consider `COc1cc2c(cc1OC(C)C)[C@H](c1ccc(Cl)cc1)N(c1ccc(C(C)(O)C3CC4CCC(C3)N4S(C)(=O)=O)cc1)C(=O)C2` (stereo partly drawn) [Example 107, (S)-1-(4-Chloro-phenyl)-2-{4-[1-hydroxy-1-(8-methanesulfonyl-8-aza-bicyclo[3.2.1]oct-3-yl)-ethyl]-phenyl}-7-isopropoxy-6-methoxy-1,4-dihydro-2H-isoquinolin-3-one], for which the IC50 came out at 0.0028 µM in assay [1], 1.55 nM in assay [2] and 2.48 µM in assay [3].

With `COc1cc2c(cc1OC(C)C)[C@H](c1ccc(Cl)cc1)N(c1ccc(C(C)(O)C3CC4CCC(C3)N4C(=O)N(C)C)cc1)C(=O)C2` (stereo partly drawn) [Example 108, 3-(1-{4-[(S)-1-(4-Chloro-phenyl)-7-isopropoxy-6-methoxy-3-oxo-3,4-dihydro-1H-isoquinolin-2-yl]-phenyl}-1-hydroxy-ethyl)-8-aza-bicyclo[3.2.1]octane-8-carboxylic acid dimethylamide], the IC50 in assay [1] turned out to be 0.0027 µM; in assay [2] it was 2.07 nM; in assay [3] it was 1.99 µM.

As for `CNC(=O)N1C2CCC1CC(C(C)(O)c1ccc(N3C(=O)Cc4cc(OC)c(OC(C)C)cc4[C@@H]3c3ccc(Cl)cc3)cc1)C2` (stereo partly drawn) [Example 109, 3-(1-{4-[(S)-1-(4-Chloro-phenyl)-7-isopropoxy-6-methoxy-3-oxo-3,4-dihydro-1H-isoquinolin-2-yl]-phenyl}-1-hydroxy-ethyl)-8-aza-bicyclo[3.2.1]octane-8-carboxylic acid methylamide], the IC50 in assay [1] was determined as 0.0024 µM; in assay [2], 1.7 nM; in assay [3] it was 2.5 µM.

As for `COc1cc2c(cc1OC(C)C)[C@H](c1ccc(Cl)cc1)N(c1ccc(C(C)(O)C3CC4CCC(C3)N4C=O)cc1)C(=O)C2` (stereo partly drawn) [Example 111, 3-(1-{4-[(S)-1-(4-Chloro-phenyl)-7-isopropoxy-6-methoxy-3-oxo-3,4-dihydro-1H-isoquinolin-2-yl]-phenyl}-1-hydroxy-ethyl)-8-aza-bicyclo[3.2.1]octane-8-carbaldehyde], the IC50 turned out to be 0.0021 µM in assay [1], 1.5 nM in assay [2] and 2.55 µM in assay [3].

Regarding `CCN1C2CCC1CC(C(C)(O)c1ccc(N3C(=O)Cc4cc(OC)c(OC(C)C)cc4[C@@H]3c3ccc(Cl)cc3)cc1)C2` (stereo partly drawn) [Example 112, (S)-1-(4-Chloro-phenyl)-2-{4-[1-(8-ethyl-8-aza-bicyclo[3.2.1]oct-3-yl)-1-hydroxy-ethyl]-phenyl}-7-isopropoxy-6-methoxy-1,4-dihydro-2H-isoquinolin-3-one], the half-inhibitory concentration (IC50) came to 0.003 µM in assay [1], 2.76 nM in assay [2] and 3.46 µM in assay [3].

Regarding `COc1cc2c(cc1OC(C)C)[C@H](c1ccc(Cl)cc1)N(c1ccc(C(C)(O)C3CC4CCC(C3)N4CCO)cc1)C(=O)C2` (stereo partly drawn) [Example 113, (S)-1-(4-Chloro-phenyl)-2-(4-{1-hydroxy-1-[8-(2-hydroxy-ethyl)-8-aza-bicyclo[3.2.1]oct-3-yl]-ethyl}-phenyl)-7-isopropoxy-6-methoxy-1,4-dihydro-2H-isoquinolin-3-one], the results for the 50% inhibitory concentration (IC50) in assay [1], in assay [2] and in assay [3] were 0.0048 µM, 2.52 nM and 4.45 µM, respectively.

Consider `COc1cc2c(cc1OC(C)C)[C@H](c1ccc(Cl)cc1)N(c1ccc(C(C)(O)C3CC4CCC(C3)N4C(=O)CO)cc1)C(=O)C2` (stereo partly drawn) [Example 114, (S)-1-(4-Chloro-phenyl)-2-(4-{1-hydroxy-1-[8-(2-hydroxy-acetyl)-8-aza-bicyclo[3.2.1]oct-3-yl]-ethyl}-phenyl)-7-isopropoxy-6-methoxy-1,4-dihydro-2H-isoquinolin-3-one], for which the concentration for half-maximal inhibition (IC50) was determined as 0.0045 µM in assay [1], 4.76 nM in assay [2] and 4.92 µM in assay [3].

As to `COc1cc2c(cc1OC(C)C)[C@H](c1ccc(Cl)cc1)N(c1ccc(C(C)(O)C3CC4CCC(C3)N4C3COC3)cc1)C(=O)C2` (stereo partly drawn) [Example 115, (S)-1-(4-Chloro-phenyl)-2-{4-[1-hydroxy-1-(8-oxetan-3-yl-8-aza-bicyclo[3.2.1]oct-3-yl)-ethyl]-phenyl}-7-isopropoxy-6-methoxy-1,4-dihydro-2H-isoquinolin-3-one], the IC50 in assay [1] came to 0.0051 µM; in assay [2], 5.11 nM; in assay [3] it was 5.39 µM.

Turning to `COc1cc2c(cc1OC(C)C)[C@H](c1ccc(Cl)cc1)N(c1ccc(C(C)(O)C3CC4CCCC(C3)N4)cc1)C(=O)C2` (stereo partly drawn) [Example 116, (S)-2-{4-[1-(9-Aza-bicyclo[3.3.1]non-3-yl)-1-hydroxy-ethyl]-phenyl}-1-(4-chloro-phenyl)-7-isopropoxy-6-methoxy-1,4-dihydro-2H-isoquinolin-3-one], the half-maximal inhibitory concentration (IC50) in assay [1] worked out at 0.0036 µM; in assay [2] it was 3.4 nM; in assay [3], 3.93 µM.
